In the case of `CCCCS(=O)(=O)Nc1ccc(S(=O)(=O)Cl)cc1`, the melting point is reported as 123 to 125 °C.

Compound `CCOc1ccccc1C(N)(C(=O)O)C(F)(F)F` (stereo unspecified) has a melting point of 119 to 121 °C.

`Cc1cc(C(=O)CCl)c(C)s1` showed a melting point of 53 to 57 °C.

Work on `Cc1ccc(NC(=O)NN)c(Cl)c1` yielded a melting point of 132 to 134 °C.

With `COc1ccc(C(N)C(=O)O)cc1` (stereo unspecified) the melting point was 232 to 234 °C.

Compound `O=[N+]([O-])C=Cc1cccc2ccccc12` has a melting point of 87 to 89 °C.

`CC(=O)CC(=O)Nc1ccccc1C(F)(F)F` gave a melting point of 60 to 62 °C.

`Cc1cnnc(N)n1` gave a melting point of 174 to 176 °C.

`CCOc1c(C#N)cnc2ccccc12` showed a melting point of 98 to 100 °C.

`COc1ccc(-c2csc(N)n2)cc1F` showed a melting point of 185 to 187 °C.

`O=C1CCCC(N2C(=O)c3ccccc3C2=O)C1` (stereo unspecified) showed a melting point of 147 to 149 °C.

Work on `OC1(Cc2ccc(F)cc2)CCNC1` (stereo unspecified) yielded a melting point of 73 to 75 °C.

`Nc1cc(Cl)ccc1-n1cnnn1` showed a melting point of 130 to 132 °C.

`NNC(=O)c1c[nH]c2ccccc12` gave a melting point of 229 to 231 °C.

`CCCC(=O)Nc1c(Cl)cc(Cl)cc1C(=O)O` gave a melting point of 180 to 182 °C.

With `N#Cc1cnn(-c2cccc(Cl)c2)c1` the melting point was 139 to 141 °C.

In the case of `O=C(O)c1ccccc1-c1nc2ccccc2s1`, the melting point is reported as 190 to 192 °C.

Work on `O=C(O)c1ccc(-c2ccc(Cl)cc2)s1` yielded a melting point of 260 to 262 °C.

In the case of `CC(N)c1cccc(S(N)(=O)=O)c1` (stereo unspecified), the melting point is reported as 27 to 29 °C.

Work on `CC(=O)CCc1ccc(O)c(F)c1` yielded a melting point of 88 to 90 °C.

Work on `COc1cc(C=O)ccc1Oc1ccc(S(=O)(=O)N2CCCCC2)cc1[N+](=O)[O-]` yielded a melting point of 173 to 175 °C.

For `CC1CC(C(=O)O)CCO1` (stereo unspecified), the melting point was 44 to 46 °C.

For `O=C(O)c1sccc1S(=O)(=O)N1CCSCC1`, the melting point was 144 to 146 °C.

With `CCOc1ccc2oc(C(=O)O)c(C)c2c1` the melting point was 155 to 165 °C.

With `Cc1nc(-c2cccc([N+](=O)[O-])c2)no1` the melting point was 108 to 110 °C.

Compound `C#CCn1cnc(-c2ccccc2)c1N` has a melting point of 126 to 128 °C.

With `CC(C)C(Br)C(=O)N1CCOCC1` (stereo unspecified) the melting point was 71 to 73 °C.

`COC(=O)c1cnc(N)nc1` gave a melting point of 209 to 211 °C.

With `NC(=S)NN=Cc1ccccc1Cl` the melting point was 210 to 212 °C.

Work on `O=C(O)c1cccc(C(=O)N2CCCC2)n1` yielded a melting point of 125 to 127 °C.

In the case of `Cc1nn(-c2ccccc2)c(C(F)(F)F)c1C(=O)O`, the melting point is reported as 146 to 148 °C.

For `Nc1nc2ccccc2n2nnnc12`, the melting point was 289 to 291 °C.

`NCC1(O)CCC1` showed a melting point of 64 to 66 °C.

For `CC(C)(C)OC(=O)NC1(CO)CC1`, the melting point was 75 to 77 °C.

`O=C(O)c1cn2ccccc2n1` gave a melting point of 242 to 244 °C.

With `Cn1c(C(=O)O)c(Cl)c2cc(Br)ccc21` the melting point was 250 to 252 °C.

In the case of `CC(C)N(C)C(=O)C1CCN(C(=O)CCl)CC1`, the melting point is reported as 110 to 112 °C.

`O=C(O)Cc1cccc2cccnc12` showed a melting point of 130 to 132 °C.

`COc1ccc(CN2C(=O)c3ccccc3C2=O)cc1C(=O)O` gave a melting point of 143 to 145 °C.

For `O=C(O)C(Sc1ccc(F)cc1F)c1ccccc1` (stereo unspecified), the melting point was 109 to 111 °C.

In the case of `CC(C)N1C(=O)CC(C(=O)O)C1c1ccc(Cl)c(F)c1` (stereo unspecified), the melting point is reported as 163 to 165 °C.

With `COc1ccccc1-c1csc(=O)[nH]1` the melting point was 127 to 129 °C.

Compound `Cc1ccc(Oc2ccc(NC(=O)CCl)cc2)cc1` has a melting point of 155 to 158 °C.

Compound `CCCCOc1ccc(C(N)=O)cc1` has a melting point of 162 to 164 °C.

With `O=C(O)COc1ccc2oc3c(c2c1)CCCC3` the melting point was 188 to 190 °C.

In the case of `O=C(O)c1cc(C2CC2)[nH]n1`, the melting point is reported as 193 to 195 °C.

`COc1ccc(-c2ccc(C(=O)O)c(F)c2)c(F)c1` showed a melting point of 212 to 214 °C.

`Nc1ccc(Cl)cc1C(=O)NC1CC1` showed a melting point of 147 to 149 °C.

Work on `NC1CCCN(c2cc(C(=O)O)ccn2)C1` (stereo unspecified) yielded a melting point of 252 to 254 °C.

For `COCCOCC(=O)Nc1cccc(N)c1C`, the melting point was 82 to 84 °C.

`CN1C(=O)C(=O)N(CC(=O)O)C1=O` gave a melting point of 191 to 193 °C.

`N#Cc1ccc(=O)[nH]c1` gave a melting point of 253 to 255 °C.

With `COc1ccc(NC2=C(Cl)C(=O)N(c3ccc(C)cc3)C2=O)cc1` the melting point was 194 to 196 °C.

`Nc1cc(Cl)ccc1NCc1ccccc1` gave a melting point of 77 to 81 °C.

Compound `NC1CCN(c2ccc(C(F)(F)F)cc2)C1` (stereo unspecified) has a melting point of 60 to 62 °C.

Compound `COc1cc(S(N)(=O)=O)ccc1N` has a melting point of 142 to 144 °C.

For `CN(C)S(=O)(=O)c1ccsc1C(=O)O`, the melting point was 108 to 110 °C.

For `COc1cc(C=O)cc(Br)c1OCC(=O)N(C)C`, the melting point was 62 to 64 °C.

For `O=C(CBr)c1ccc(S(=O)(=O)N2CCOCC2)cc1`, the melting point was 148 to 150 °C.

`O=C(CCl)c1ccc(CC(=O)N2CCOCC2)s1` gave a melting point of 136 to 138 °C.

`COc1cc(NC(=O)C2CC2C)c(C(=O)O)cc1OC` (stereo unspecified) gave a melting point of 207 to 209 °C.

`Clc1cc(NC2CCOc3ccccc32)ncn1` (stereo unspecified) gave a melting point of 129 to 131 °C.

`NC(=O)CCc1ccc(C(=O)CCl)cc1` gave a melting point of 139 to 141 °C.

In the case of `N#Cc1cc(N)ccc1Oc1ccc(C(F)(F)F)cc1`, the melting point is reported as 75 to 77 °C.

For `NC1=NS(=O)(=O)c2ccccc21`, the melting point was 279 to 281 °C.

With `Nc1ccc(-n2cnnn2)cc1` the melting point was 140 to 142 °C.

In the case of `Cc1ccc(C)c(-n2c(=O)c(N)c(C)n2C)c1`, the melting point is reported as 19 to 20 °C.

In the case of `Nc1ccc(N2CCCC2=O)cc1`, the melting point is reported as 125 to 127 °C.

With `Cc1cc(C#N)c(N)s1` the melting point was 100 to 102 °C.

Work on `CC(=O)Nc1ccc(S(=O)(=O)N2CCC(N)CC2)cc1` yielded a melting point of 212 to 214 °C.

Work on `Cc1cc(C(=O)O)c(C)n1C1CCCCC1` yielded a melting point of 204 to 206 °C.

In the case of `CCn1c(N)nc2ccccc21`, the melting point is reported as 152 to 154 °C.

With `O=C(O)CNC(=O)NCc1ccc([N+](=O)[O-])cc1` the melting point was 166 to 168 °C.

In the case of `CC(=CC(=O)O)C(C)(C)C`, the melting point is reported as 83 to 85 °C.

For `CC(C(=O)O)N1CCCCC1=O` (stereo unspecified), the melting point was 134 to 136 °C.

`CS(=O)(=O)Nc1ccccc1Br` showed a melting point of 79 to 81 °C.

For `NNC(=S)Nc1cc(S(=O)(=O)N2CCOCC2)ccc1Cl`, the melting point was 181 to 183 °C.

In the case of `CC(C)C(C)(C#N)NC(=O)CCl` (stereo unspecified), the melting point is reported as 71 to 73 °C.

Work on `CC(NC(=O)Nc1ccccc1)C(=O)O` (stereo unspecified) yielded a melting point of 180 to 182 °C.

`Cc1nnc(-c2ccc(C(=O)O)cc2)[nH]1` showed a melting point of 272 to 274 °C.

Compound `COc1ccc(O)c(N)c1` has a melting point of 135 to 140 °C.

Compound `O=C(O)c1nn(-c2ccccc2)c2c1CCCCC2` has a melting point of 171 to 173 °C.

Work on `O=C1CSC(=S)N1c1cccnc1` yielded a melting point of 159 to 161 °C.

Work on `Cc1c(C(=O)O)cccc1N1CCNC1=O` yielded a melting point of 221 to 223 °C.

`NC(=O)NC(C(=O)O)c1ccccc1` (stereo unspecified) showed a melting point of 201 to 203 °C.

With `O=C1CNC(=O)N1CCCl` the melting point was 114 to 116 °C.

Compound `O=C(O)c1cnc2c(OC(F)(F)F)cccc2c1O` has a melting point of 259 to 261 °C.

For `c1cc2c(s1)C1(CCNCC1)OCC2`, the melting point was 95 to 97 °C.

Work on `O=C(NCC(F)(F)F)c1ccc(O)cc1` yielded a melting point of 113 to 115 °C.

For `O=C(O)C1CCCN1S(=O)(=O)c1cccc([N+](=O)[O-])c1` (stereo unspecified), the melting point was 182 to 184 °C.

For `Cc1cc(C(=O)CCl)c(C)n1-c1ccc2c(c1)OCCO2`, the melting point was 99 to 103 °C.

For `O=C1COc2cc(F)ccc2N1`, the melting point was 206 to 208 °C.

`O=C(O)CCC1NC(=O)N(c2ccc(Cl)c(Cl)c2)C1=O` (stereo unspecified) showed a melting point of 173 to 175 °C.

`O=C(O)c1nn(-c2ccc(Cl)cc2)c2c1CCCCC2` gave a melting point of 212 to 214 °C.

In the case of `Cc1ccc(OCc2cccc(C(=O)O)c2)cn1`, the melting point is reported as 166 to 168 °C.

With `Cc1cc(C=O)c(C)n1C(C)C` the melting point was 45 to 47 °C.

`Cc1csc(-c2cccc(N)c2)n1` gave a melting point of 82 to 84 °C.

`O=C1CNc2ccncc2N1` showed a melting point of 259 to 261 °C.

Compound `Cn1c(=O)oc2cc(N)ccc21` has a melting point of 150 to 152 °C.

Work on `O=C(CCl)c1sccc1Br` yielded a melting point of 75 to 77 °C.

`COc1ccc(Cn2cc(C(=O)O)cn2)cc1` showed a melting point of 132 to 134 °C.
